{"source": "patent US9167822B2", "about": "“Antifungal compositions” (DSM IP ASSETS B.V., priority 2012, dated 2015)", "system": "Botrytis cinerea", "assay": "In vitro antifungal activity, 96-well microtiter plates", "type": "cell-based", "conditions": "25° C., day 3, 1.25 ppm natamycin, 6.25 ppm isopyrazam or both", "method": "Subsequently, 100 μl of a Botrytis cinerea suspension prepared in PCB medium was used to inoculated each well with 2.5×10^3 spores/ml. […] After incubation of the microtiter plates at 25° C., the in vitro antifungal activity (%) of the individual active ingredients was assessed by calculating the reduction in mould growth observed in the presence of the active ingredient in comparison to the mould growth observed in the absence of the active ingredient. The expected antifungal activity (E in %) of the active ingredient combination was calculated according to the Colby equation (Colby, 1967): […]"}
{"smiles": "C[C@@H]1C/C=C/C=C/C=C/C=C/[C@H](O[C@@H]2O[C@H](C)[C@@H](O)[C@H](N)[C@@H]2O)C[C@@H]2O[C@](O)(C[C@@H](O)C[C@H]3O[C@@H]3/C=C/C(=O)O1)C[C@H](O)[C@H]2C(=O)O", "note": "[Natamycin, natamycin]", "values": [{"measurement": "Observed antifungal activity O (%)", "result": 0, "unit": "%"}]}
